Measurements: patent US20230348426A1, “OXOPYRROLIDINE FPR2 AGONISTS” (Bristol-Myers Squibb Company, priority 2020, published 2023)

How the values were obtained:
[1] = target: human FPR2 (Homo sapiens (Human), UniProt P25090); test: FPR2 cyclic adenosine monophosphate (cAMP) assay; format: cell-based; settings: CHO cells overexpressing human FPR2; forskolin 5 µM; inhibition of cAMP production; read-out: hFPR2 cAMP2 EC50
In short: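 Inhibition of forskolin-driven (5 µM) cAMP, with 200 µM IBMX, measured in human FPR2-expressing CHO cells, 2,000 per well, 30 min at room temperature; compounds tested 0.020 nM to 100 µM in 1% DMSO. HTRF 665/590 ratio converted to cAMP via calibration curve, then 4-parameter fit.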

[2] = target: human FPR1 (Homo sapiens (Human), UniProt P21462); test: FPR1 cyclic adenosine monophosphate (cAMP) assay; format: cell-based; settings: CHO cells overexpressing human FPR1; forskolin 10 µM; inhibition of cAMP production; read-out: hFPR1 cAMP EC50
In short: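 Human FPR1-expressing CHO cells were used at 4,000 per well, with compound at 0.020 nM–100 µM in 1% DMSO. Potency came from a 4-parameter logistic fit.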

Chain of human FPR2 (P25090 whole entry): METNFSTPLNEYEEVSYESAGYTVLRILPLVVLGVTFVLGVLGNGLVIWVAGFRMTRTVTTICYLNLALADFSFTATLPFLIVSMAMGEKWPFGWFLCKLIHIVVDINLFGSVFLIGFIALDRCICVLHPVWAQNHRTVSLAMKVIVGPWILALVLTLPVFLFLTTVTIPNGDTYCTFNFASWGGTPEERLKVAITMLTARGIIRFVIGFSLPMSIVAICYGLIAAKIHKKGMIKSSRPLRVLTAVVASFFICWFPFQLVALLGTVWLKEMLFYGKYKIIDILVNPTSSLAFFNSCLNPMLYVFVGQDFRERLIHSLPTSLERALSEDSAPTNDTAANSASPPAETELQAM
Chain of human FPR1 (P21462 whole entry): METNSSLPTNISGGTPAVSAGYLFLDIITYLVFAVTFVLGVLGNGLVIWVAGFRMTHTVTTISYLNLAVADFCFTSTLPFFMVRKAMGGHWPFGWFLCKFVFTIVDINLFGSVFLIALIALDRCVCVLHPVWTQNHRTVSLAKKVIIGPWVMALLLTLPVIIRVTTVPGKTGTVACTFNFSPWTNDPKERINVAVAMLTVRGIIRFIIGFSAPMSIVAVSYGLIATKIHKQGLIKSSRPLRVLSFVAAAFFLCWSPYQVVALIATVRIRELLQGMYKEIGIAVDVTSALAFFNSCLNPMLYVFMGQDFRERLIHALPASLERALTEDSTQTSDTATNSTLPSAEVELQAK

SMILES	EC50 [1] [nM]	EC50 [2] [nM]
COc1cc(F)c([C@@H]2CN(c3nccc(N4C[C@@H](C)N(C)[C@@H](C)C4)c3C(F)(F)F)C(=O)[C@H]2NC(=O)c2ccc(OC(F)F)cc2)c(F)c1 [Example 109]	2.9	500
COc1cc(F)c([C@@H]2CN(c3nc(NC4CCOC4)ccc3F)C(=O)[C@H]2NC(=O)c2ccc(OC(F)F)cc2)c(F)c1 (some centres unmarked) [Example 271]	7.8	1400
COc1cc(F)c([C@@H]2CN(c3nc(N4CC(C)OCC4=O)ccc3F)C(=O)[C@H]2NC(=O)c2ccc(OC(F)(F)F)cc2)c(F)c1 (some centres unmarked) [Example 124]	3.3	47
COc1cc(F)c([C@@H]2CN(c3ccn(CC(F)F)n3)C(=O)[C@H]2NC(=O)c2ccc(OC(F)(F)F)cc2)c(F)c1 [Example 662]	4	14
COc1cc(F)c([C@@H]2CN(c3cccn(CC(C)OC)c3=O)C(=O)[C@H]2NC(=O)c2ccc(OC(F)(F)F)cc2)c(F)c1 (some centres unmarked) [Example 103]	2.8	1.9
COc1cc(F)c([C@@H]2CN(c3nc(N4C[C@@H](C)N(C)[C@@H](C)C4)ccc3OC)C(=O)[C@H]2NC(=O)c2ccc(Cl)cc2)c(F)c1 [Example 284]	8.4	580
COc1cc(F)c([C@@H]2CN(c3ccc(CO)[nH]c3=O)C(=O)[C@H]2NC(=O)c2ccc(OC(F)F)cc2)c(F)c1 [Example 139]	3.5	570
COCCn1cccc(N2C(=O)[C@@H](NC(=O)c3ccc(OC(F)(F)F)cc3)[C@H](c3c(F)cc(OC)cc3F)[C@@H]2C)c1=O [Example 100]	2.7	22
CCn1cccc(N2C[C@@H](c3c(F)cc(OC)cc3F)[C@H](NC(=O)c3ccc(OC(F)F)cc3)C2=O)c1=O [Example 169]	4.3	21
COc1cc(F)c([C@@H]2CN(c3cccn(CCO)c3=O)C(=O)[C@H]2NC(=O)c2ccc(C)cc2)c(F)c1 [Example 273]	7.8	1400
COc1ccc([C@@H]2CN(c3cccn(CCC(F)(F)F)c3=O)C(=O)[C@H]2NC(=O)c2ccc(OC(F)F)cc2)c(F)c1 [Example 55]	1.4	8.6
COc1cc(F)c([C@@H]2CN(c3cccn(CCN(C)C)c3=O)C(=O)[C@H]2NC(=O)c2ccc(OC(F)(F)F)cc2)c(F)c1 [Example 85]	2.3	160
COCCn1cccc(N2C[C@@H](c3ccc(OC)cc3)[C@H](NC(=O)c3ccc(OC(F)F)cc3)C2=O)c1=O [Example 276]	8	13
COCC(CN)n1cccc(N2C[C@@H](c3c(F)cc(OC)cc3F)[C@H](NC(=O)c3ccc(OC(F)(F)F)cc3)C2=O)c1=O (some centres unmarked) [Example 78]	2	5.2
COc1cc(F)c([C@@H]2CN(c3nc(Cl)ccc3C#N)C(=O)[C@H]2NC(=O)c2ccc(OC(F)F)cc2)c(F)c1 [Example 6]	5.1	650
COCCn1cccc(N2C[C@@H](c3ccc(Cl)cc3)[C@H](NC(=O)c3ccc(OC(F)F)cc3)C2=O)c1=O [Example 162]	4.1	9.4
COCCn1cccc(N2C[C@@H](c3c(F)cc(OC)cc3F)[C@H](NC(=O)c3ccc(C)cc3)C2=O)c1=O [Example 292]	8.7	950
COc1cc(F)c([C@@H]2CN(c3c(C)ccn(CC(OC)C(F)(F)F)c3=O)C(=O)[C@H]2NC(=O)c2ccc(OC(F)(F)F)cc2)c(F)c1 (some centres unmarked) [Example 297]	9	0.1
COc1cc(F)c([C@@H]2CN(c3nccc(NCC(C)(C)O)c3C(F)(F)F)C(=O)[C@H]2NC(=O)c2ccc(OC(F)F)cc2)c(F)c1 [Example 239]	6.6	650
COc1cc(F)c([C@@H]2CN(c3c(C)ccn(CCO)c3=O)C(=O)[C@H]2NC(=O)c2ccc(OC(F)(F)F)cc2)c(F)c1 [Example 115]	3.1	2.4

The next lines start with the values.

EC50 [1] [nM]	EC50 [2] [nM]	SMILES
90	64	COc1cc(F)c([C@@H]2CN(c3c(C)ccn([C@H]4COC[C@@H]4O)c3=O)C(=O)[C@H]2NC(=O)c2ccc(Cl)cc2)c(F)c1 [Example 621]
2.1	18	COc1cc(F)c([C@@H]2CN(c3ccnn(CCC(F)(F)F)c3=O)C(=O)[C@H]2NC(=O)c2ccc(OC(F)F)cc2)c(F)c1 [Example 468]
1.8	2	COc1cc(F)c([C@@H]2CN(c3ccnn(CC(F)F)c3=O)C(=O)[C@H]2NC(=O)c2ccc(OC(F)(F)F)cc2)c(F)c1 [Example 473]
0.8	1400	COc1cc(F)c([C@H]2[C@H](NC(=O)c3ccc(OC(F)F)cc3)C(=O)N(c3cccc(C4CCN(CCO)CC4)n3)[C@H]2C)c(F)c1 [Example 524]
89	3.1	CCn1cccc(N2C[C@@H](c3c(F)cc(OC)cc3F)[C@H](NC(=O)c3cccc(OC)c3)C2=O)c1=O [Example 345]
480	> 5000	COc1cc(C2CC2)nc(N2C(=O)[C@@H](NC(=O)c3ccc(OC(F)(F)F)cc3)[C@H](c3c(F)cc(OC)cc3F)[C@@H]2C)c1 [Example 575]
4.8	110	COc1cc(F)c([C@@H]2CN(c3nccc(NCCO)c3C(F)(F)F)C(=O)[C@H]2NC(=O)c2ccc(Cl)cc2)c(F)c1 [Example 419]
13	3700	COc1cc(F)c([C@@H]2CN(c3cc(C#N)cn(C)c3=O)C(=O)[C@H]2NC(=O)c2ccc(OC(F)F)cc2)c(F)c1 [Example 330]
10	0.5	COc1ccc([C@@H]2CN(c3c(C)ccn(CC4CC4)c3=O)C(=O)[C@H]2NC(=O)c2ccc(OC(F)(F)F)cc2)c(F)c1 [Example 312]
2.4	2	COc1ccc([C@@H]2CN(c3cccn(CC(OC)C(F)(F)F)c3=O)C(=O)[C@H]2NC(=O)c2ccc(Cl)cc2)cc1 (some centres unmarked) [Example 393]
97	1900	COc1cc(F)c([C@@H]2CN(c3cncnc3O)C(=O)[C@H]2NC(=O)c2ccc(OC(F)F)cc2)c(F)c1 [Example 346]
13	5800	COc1cc(F)c([C@@H]2CN(c3nc(N4C[C@@H](C)N(C)[C@@H](C)C4)ccc3C#N)C(=O)[C@H]2NC(=O)c2ccc(OC(F)F)cc2)c(F)c1 [Example 332]
1	13	COCC(CO)n1nccc(N2C[C@@H](c3c(F)cc(OC)cc3F)[C@H](NC(=O)c3ccc(Cl)cc3)C2=O)c1=O (some centres unmarked) [Example 477]
9.9	1.8	COCC(CO)n1cccc(N2C[C@@H](c3ccc(Cl)cc3)[C@H](NC(=O)c3ccc(OC(F)F)cc3)C2=O)c1=O (some centres unmarked) [Example 307]
6.2	590	COc1cc(F)c([C@@H]2CN(c3cnn4c3OCCC4)C(=O)[C@H]2NC(=O)c2ccc(OC(F)(F)F)cc2)c(F)c1 [Example 598]
0.8	68	COc1cc(F)c([C@@H]2CN(c3c(C)ccn(C4CCNCC4)c3=O)C(=O)[C@H]2NC(=O)c2ccc(Cl)cc2)c(F)c1 [Example 506]
2.3	150	COc1cc(F)c([C@@H]2CN(c3c(C)ccn(C4CCN(C)C4)c3=O)C(=O)[C@H]2NC(=O)c2ccc(OC(F)F)cc2)c(F)c1 (some centres unmarked) [Example 507]
1.6	2500	COc1cc(F)c([C@@H]2CN(c3cccc(C4CCCN(CCO)C4)n3)C(=O)[C@H]2NC(=O)c2ccc(OC(F)F)cc2)c(F)c1 (some centres unmarked) [Example 501]
3.8	2.8	COc1ccc([C@@H]2CN(c3ccnn(CC(F)F)c3=O)C(=O)[C@H]2NC(=O)c2ccc(OC(F)(F)F)cc2)cc1 [Example 692]
20	810	COc1cc(F)c([C@@H]2CN(c3ncn(CC(F)F)n3)C(=O)[C@H]2NC(=O)c2ccc(Cl)cc2)c(F)c1 [Example 541]
1.3	1700	COc1cc(F)c([C@H]2[C@H](NC(=O)c3ccc(OC(F)F)cc3)C(=O)N(c3cccc(C4CCCN(CCO)C4)n3)[C@H]2C)c(F)c1 (some centres unmarked) [Example 516]
10	1900	COc1cc(F)c([C@@H]2CN(c3c(C(F)(F)F)ccn(C)c3=O)C(=O)[C@H]2NC(=O)c2ccc(OC(F)F)cc2)c(F)c1 [Example 311]
4.8	76	CCN1CCC(N2C[C@@H](c3c(F)cc(OC)cc3F)[C@H](NC(=O)c3ccc(OC(F)F)cc3)C2=O)C1=O (some centres unmarked) [Example 390]
11	92	COc1cc(F)c([C@@H]2CN(c3cccn(CC(O)CO)c3=O)C(=O)[C@H]2NC(=O)c2ccc(OC(F)F)cc2)c(F)c1 (some centres unmarked) [Example 678]
11	24	COc1ccc([C@@H]2CN(c3ccnn(CC(F)F)c3=O)C(=O)[C@H]2NC(=O)c2ccc(Cl)cc2)cc1 [Example 690]
5.4	> 5000	COc1cc(F)c([C@@H]2CN(c3c(C)ncn(CC4(C)COC4)c3=O)C(=O)[C@H]2NC(=O)c2ccc(Cl)cc2)c(F)c1 [Example 522]
9.4	5	COc1cc(F)c([C@@H]2CN(c3c(C)ccn(C4CCOC4)c3=O)C(=O)[C@H]2NC(=O)c2ccc(OC(F)F)cc2)c(F)c1 (some centres unmarked) [Example 479]
2	45	COc1ccc([C@@H]2CN(c3cccn(CC(O)C(F)(F)F)c3=O)C(=O)[C@H]2NC(=O)c2ccc(OC(F)(F)F)cc2)cc1 (some centres unmarked) [Example 657]
4.3	36	COc1cc(F)c([C@@H]2CN(c3cncn(CC(O)C(F)(F)F)c3=O)C(=O)[C@H]2NC(=O)c2ccc(Cl)cc2)c(F)c1 (some centres unmarked) [Example 486]
